In patent US20110105326A1, “Method for Enhancing the Rainfastness of Glyphosate” (BASF SE, priority 2008, published 2011):

Tests used:
Assay type in all cases: in vivo
[1] = test system: Ipomoea grandifolia (IPOGR); experiment: herbicidal action with/without simulated rainfall after treatment, Ipomoea grandifolia; settings: Example 10, flumioxazin 60 g/ha, glyphosate 1080 g/ha, 0.5% v/v Dash in Flumioxazin and mixture
Experimental: (§1) The enhancement of the rainfastness of glyphosate was determined via the herbicidal activity of the mixture comprising glyphosate and the respective rainfastness enhancing herbicidal component B as well as of the single herbicidal components in relation to simulated rainfall at different time intervals.
(§2) The evaluation of the damage caused by the method and the compositions the according to the present invention and the single herbicidal components was carried out using a scale from 0 to 100%, compared to the untreated control plots. Here, 0 means no damage and 100 means complete destruction of the plants of a respective weed or crop species.
(§3) The application was performed with a fixed spayer system with air pressurization and with a tank spray volume of two liters. The speed of the spray device over the plants was adjusted for a spray volume of 200 I/ha. The spray device was a spray barr with four nozzles from the type Teejet XR 11002VS with a space of 50 cm between each nozzle.
(§4) The application was performed at a weed stage of 6 to 8 leaves. After the application of the formulated herbicides the leaves were washed through rain of 20 mm using a fixed rain simulator system at following time interval: 15 min, 30 min, 1, 2, 3, 4 and 6 hours after treatment.

[2] = test system: Brachiaria decumbens (BRADE); experiment: herbicidal action with/without simulated rainfall after treatment, Brachiaria decumbens; set-up: key: % damage vs untreated control; 0 = no damage, 100 = complete destruction
In short: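 Glyphosate alone, component B alone or their mixture sprayed at 200 l/ha on weeds at the 6–8 leaf stage. Simulated rain of 20 mm applied 15 min, 30 min, 1, 2, 3, 4 or 6 h after treatment. Damage scored 0–100% against untreated controls.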

[3] = test system: Bidens pilosa (BIDPI); experiment: herbicidal action with/without simulated rainfall after treatment, Bidens pilosa; settings: Example 9, flumioxazin 60 g/ha, glyphosate 1080 g/ha, 0.5% v/v Dash in Flumioxazin and mixture
Experimental: as §1, §2, §3, §4

[4] = simulated rainfall 15 min after treatment, 1 DAA
[5] = simulated rainfall 15 min after treatment, 2 DAA
[6] = simulated rainfall 15 min after treatment, 3 DAA
[7] = simulated rainfall 15 min after treatment, 7 DAA
[8] = simulated rainfall 2 hours after treatment, 1 DAA
[9] = simulated rainfall 2 hours after treatment, 2 DAA
[10] = simulated rainfall 2 hours after treatment, 3 DAA
[11] = simulated rainfall 2 hours after treatment, 7 DAA
[12] = without simulated rainfall, 1 DAA
[13] = without simulated rainfall, 2 DAA
[14] = without simulated rainfall, 3 DAA
[15] = without simulated rainfall, 7 DAA

## C#CCN1C(=O)COc2cc(F)c(N3C(=O)C4=C(CCCC4)C3=O)cc21 [Flumioxazin, flumioxazin]
[1]; [4]
  herbicidal action against IPOGR: 20.33%
[1]; [5]
  herbicidal action against IPOGR: 75%
[1]; [6]
  herbicidal action against IPOGR: 82.33%
[1]; [7]
  herbicidal action against IPOGR: 98.33%
[1]; simulated rainfall 15 min after treatment, 14 DAA
  herbicidal action against IPOGR: 90%
[1]; [8]
  herbicidal action against IPOGR: 24.66%
[1]; [9]
  herbicidal action against IPOGR: 80%
[1]; [10]
  herbicidal action against IPOGR: 94.33%
[1]; [11]
  herbicidal action against IPOGR: 99.66%
[1]; simulated rainfall 2 hours after treatment, 14 DAA
  herbicidal action against IPOGR: 100%
[1]; [12]
  herbicidal action against IPOGR: 19.33%
[1]; [13]
  herbicidal action against IPOGR: 93.66%
[1]; [14]
  herbicidal action against IPOGR: 98%
[1]; [15]
  herbicidal action against IPOGR: 98.66%
[1]; without simulated rainfall, 14 DAA
  herbicidal action against IPOGR: 97.66%
[2]; Example 11, simulated rainfall 15 min after treatment, 1 DAA, flumioxazin 60 g/ha, glyphosate 1080 g/ha, 0.5% v/v Dash in Flumioxazin and mixture
  herbicidal action against BRADE: 28.33%
[2]; Example 11, simulated rainfall 15 min after treatment, 2 DAA, flumioxazin 60 g/ha, glyphosate 1080 g/ha, 0.5% v/v Dash in Flumioxazin and mixture
  herbicidal action against BRADE: 64.66%
[2]; Example 11, simulated rainfall 15 min after treatment, 3 DAA, flumioxazin 60 g/ha, glyphosate 1080 g/ha, 0.5% v/v Dash in Flumioxazin and mixture
  herbicidal action against BRADE: 80%
[2]; Example 11, simulated rainfall 15 min after treatment, 7 DAA, flumioxazin 60 g/ha, glyphosate 1080 g/ha, 0.5% v/v Dash in Flumioxazin and mixture
  herbicidal action against BRADE: 82.33%
[2]; Example 11, simulated rainfall 30 min after treatment, 1 DAA, flumioxazin 60 g/ha, glyphosate 1080 g/ha, 0.5% v/v Dash in Flumioxazin and mixture
  herbicidal action against BRADE: 22.33%
[2]; Example 11, simulated rainfall 30 min after treatment, 2 DAA, flumioxazin 60 g/ha, glyphosate 1080 g/ha, 0.5% v/v Dash in Flumioxazin and mixture
  herbicidal action against BRADE: 53.66%
[2]; Example 11, simulated rainfall 30 min after treatment, 3 DAA, flumioxazin 60 g/ha, glyphosate 1080 g/ha, 0.5% v/v Dash in Flumioxazin and mixture
  herbicidal action against BRADE: 76%
[2]; Example 11, simulated rainfall 30 min after treatment, 7 DAA, flumioxazin 60 g/ha, glyphosate 1080 g/ha, 0.5% v/v Dash in Flumioxazin and mixture
  herbicidal action against BRADE: 76.66%
[2]; Example 11, without simulated rainfall, 1 DAA, flumioxazin 60 g/ha, glyphosate 1080 g/ha, 0.5% v/v Dash in Flumioxazin and mixture
  herbicidal action against BRADE: 14.66%
[2]; Example 11, without simulated rainfall, 2 DAA, flumioxazin 60 g/ha, glyphosate 1080 g/ha, 0.5% v/v Dash in Flumioxazin and mixture
  herbicidal action against BRADE: 41%
[2]; Example 11, without simulated rainfall, 3 DAA, flumioxazin 60 g/ha, glyphosate 1080 g/ha, 0.5% v/v Dash in Flumioxazin and mixture
  herbicidal action against BRADE: 42.66%
[2]; Example 11, without simulated rainfall, 7 DAA, flumioxazin 60 g/ha, glyphosate 1080 g/ha, 0.5% v/v Dash in Flumioxazin and mixture
  herbicidal action against BRADE: 51%
[2]; simulated rainfall 2 hours after treatment, 1 DAA, Example 11.4
  herbicidal action against BRADE: 16.33
[2]; simulated rainfall 2 hours after treatment, 2 DAA, Example 11.4
  herbicidal action against BRADE: 50.66
[2]; simulated rainfall 2 hours after treatment, 3 DAA, Example 11.4
  herbicidal action against BRADE: 65
[2]; simulated rainfall 2 hours after treatment, 7 DAA, Example 11.4
  herbicidal action against BRADE: 80
[2]; simulated rainfall 6 hours after treatment, 1 DAA, Example 11.5
  herbicidal action against BRADE: 21.66
[2]; simulated rainfall 6 hours after treatment, 2 DAA, Example 11.5
  herbicidal action against BRADE: 44.33
[2]; simulated rainfall 6 hours after treatment, 3 DAA, Example 11.5
  herbicidal action against BRADE: 63.33
[2]; simulated rainfall 6 hours after treatment, 7 DAA, Example 11.5
  herbicidal action against BRADE: 65
[3]; [4]
  herbicidal action against BIDPI: 51%
[3]; [5]
  herbicidal action against BIDPI: 59.66%
[3]; [6]
  herbicidal action against BIDPI: 64%
[3]; [7]
  herbicidal action against BIDPI: 69%
[3]; simulated rainfall 30 min after treatment, 1 DAA
  herbicidal action against BIDPI: 63.66%
[3]; simulated rainfall 30 min after treatment, 2 DAA
  herbicidal action against BIDPI: 63%
[3]; simulated rainfall 30 min after treatment, 3 DAA
  herbicidal action against BIDPI: 82%
[3]; simulated rainfall 30 min after treatment, 7 DAA
  herbicidal action against BIDPI: 78.33%
[3]; [8]
  herbicidal action against BIDPI: 72.33%
[3]; [9]
  herbicidal action against BIDPI: 86.66%
[3]; [10]
  herbicidal action against BIDPI: 91.66%
[3]; [11]
  herbicidal action against BIDPI: 96.66%
[3]; simulated rainfall 6 hours after treatment, 1 DAA
  herbicidal action against BIDPI: 66.66%
[3]; simulated rainfall 6 hours after treatment, 2 DAA
  herbicidal action against BIDPI: 84%
[3]; simulated rainfall 6 hours after treatment, 3 DAA
  herbicidal action against BIDPI: 91.33%
[3]; simulated rainfall 6 hours after treatment, 7 DAA
  herbicidal action against BIDPI: 92.66%
[3]; [12]
  herbicidal action against BIDPI: 80%
[3]; [13]
  herbicidal action against BIDPI: 92%
[3]; [14]
  herbicidal action against BIDPI: 98%
[3]; [15]
  herbicidal action against BIDPI: 98.66%
